Tests used:
[1] = Plasma extraction and HPLC analysis in dogs (lutein+zeaxanthin, retinol, α-tocopherol); format: in vivo, Beagle dogs
Description: Fifty six female Beagle dogs (17 to 18 months old; average body weight 11.4±0.4 kg) were randomly assigned to be supplemented daily with 0, 5, 10 or 20 mg lutein for 17 weeks. The lutein contained 76.66% lutein and 5.23% zeaxanthin. The lutein supplement was resuspended in soybean oil to the appropriate concentration and 1 mL administered perorally at 0800 h daily. Food (200 g/dog/d) was offered immediately after the lutein supplementation. The basal diet shown in Table 1 below met or exceeded the requirements for all essential nutrients (NRC 1985).
Blood was collected by jugular venipuncture into heparinized evacuated tubes on weeks 0, 2, 4, 8 and 12 and aliquots used for HPLC analysis and for assessing immune responses.
Plasma was extracted for analysis of lutein, zeaxanthin, retinol and α-tocopherol. Briefly, plasma protein was precipitated by adding an equal volume of ethanol containing 0.1% butylated hydroxytoluene (BHT) (Aldrich Chemical Co., Milwaukee, Wis.). The mixture was extracted with 5 mL of a 1:1 mixture of petroleum ether:anhydrous diethyl ether.
The dried residue was resuspended in mobile phase consisting of a 47:47:6 (v:v:v) mixture of HPLC-grade acetonitrile: methanol: chloroform (Fisher Scientific, Fair Lawn, N.J.). Lutein, zeaxanthin and α-tocopherol were quantitated by comparing the area under the curve whereas retinol was quantitated using peak height. The identity of the eluted compounds was confirmed by comparing their absorption spectrum with that of pure standards. Because baseline separation of lutein and zeaxanthin was not accomplished, plasma concentrations were reported as lutein+zeaxanthin.

[2] = system: lymphocyte subsets (CD5, CD4, CD8, MHC class II, CD21); assay: Lymphocyte subsets by flow cytometry, dogs; format: in vivo, Beagle dogs
Description: Blood leukocytes were separated using Histopaque-1119 (Sigma, St. Louis, Mo.). Cells were washed three times with phosphate-buffered saline (PBS, pH 7.4) and contaminating erythrocytes were lysed in NH4CI (8.4 g/L). Lymphocyte subsets were determined by flow cytometry (FACScan, Becton Dickinson, San Jose, Calif.). Isolated mononuclear cells were resuspended to 1×10^7 cells/mL in PBS supplemented with 2% gamma globulin-free serum, 5% goat serum and 0.2 g/L sodium azide. For immunofluorescence analysis, a total of 5×10^5 cells were incubated for 30 minutes on ice with optimal concentrations of mouse anti-canine monoclonal antibody (mAb). The mAb used were specific for the following lymphocyte subsets: total T cells (anti-CD5), T-helper cells (anti-CD4), T-cytotoxic/suppressor cells (anti-CD8), lymphocytes expressing major histocompatability complex (MHQ class II antigens (anti-MHC class II), and B cells (anti-CD21). Cells were then washed three times and incubated with a secondary antibody, fluorescein isothiocyanate (FITC)-conjugated goat F(ab′)2 anti-mouse IgG+IgM (H+L) (Caltag, Burlingame, Calif.), for 30 minutes on ice to visualize the bound mAb. Stained cells were fixed in 4% paraformaldehyde in preparation for acquisition. Appropriate negative controls were included to correct for background fluorescence. Data were expressed as the percentage of positive-staining cells corrected for cells stained nonspecifically with the secondary antibody.

IL-2 = IL-2 production by PHA-stimulated whole blood cultures, dogs; format: in vivo, Beagle dogs
Description: Whole blood was diluted 1:2 with RPMI-1640 supplemented with Hepes and antibiotics (described earlier) and 400 μL of diluted blood were pipetted into 48-well plates (Costar, Cambridge, Mass.). Cells were stimulated with PHA (400 μL of a 5 μg/mL solution) for 48 hours at […] in a 5% CO2 atmosphere. The plates were centrifuged at 200×g for 10 minutes and the supernatant was frozen at −80° C. The IL-2 content of the culture supernatant was determined in triplicate by ELISA (Intergen, Purchase, N.Y.). The polyclonal anti-human IL-2 cross-reacted with canine IL-2 and recombinant human IL-2 was used as the standard.

[3] = system: peripheral blood mononuclear cells (PBMC); assay: Mitogen-induced lymphocyte proliferation by PBMC, whole blood culture, dogs; format: in vivo, Beagle dogs
Description: Blood collected on weeks 0, 2, 4, 8 and 12 were used to assess mitogen-induced lymphocyte proliferation by peripheral blood mononuclear cells (PBMC). Whole blood culture was used in order to mimic in vivo conditions. Mitogens used were phytohemagglutinin (PHA), concanavalin A (Con A) and pokeweed mitogen (PWM). Whole blood was thoroughly mixed and then diluted 1:12 with RPMI-1640 containing 25 mM of Hepes, penicillin (100 U/mL) and streptomycin (100 μg/mL) (Sigma, St. Louis, Mo.). […] Triplicate 150 μL volumes were pipetted into 96-well round bottom plates and 50 μl of the appropriate mitogens added. The final concentrations of the mitogens in culture were 2 and 10 μg/mL for PHA, 1 and 5 μg/mL for Con A and 0.5 and 2.5 μg/mL for PWM. The two mitogen concentrations gave maximum (the higher mitogen concentration) and suboptimal (lower mitogen concentration) proliferative responses in preliminary studies using blood from similar animals. The mixture was incubated for 72 h at 37° C. in a humidified incubator under a 5% CO2 atmosphere. Four hours prior to the termination of the incubation period, 20 μL of [^3H]-thymidine (1 [μCi/well) were added. Cells were harvested onto fiberglass filters and radioactivity was counted by liquid scintillation. Proliferation response of PBMC was expressed as stimulation index (cpm of stimulated cultures/cpm of unstimulated cultures).

[4] = system: transplantable murine mammary tumor cell line; details: mice, dietary lutein; cited from earlier work
[5] = Stability of lutein in prepared cat food; format: physicochemical; details: diets mixed weekly, stored at −20° C. in sealed containers under nitrogen gas, analyzed periodically
Description: Prior to being fed to the cats, the lutein-containing diet was mixed with additional basal diet to achieve the desired lutein concentration. The final diets were mixed weekly and stored at −20° C. in sealed containers undernitrogen gas. […] Food and water were available ad libitum. Cats were housed (7 cats/pen; 1.5×5.0 m) in a temperature (20 to 22° C.) and light (14 h light) controlled facility.

cats = assay: Delayed type hypersensitivity (DTH) response in cats; format: in vivo, Tabby cats; details: for DTH response to vaccine: week 6, 72 h post-injection

**Q.** What does the source list for `CC1=C[C@H](O)CC(C)(C)[C@H]1/C=C/C(C)=C/C=C/C(C)=C/C=C/C=C(C)/C=C/C=C(C)/C=C/C1=C(C)C[C@@H](O)CC1(C)C` [lutein]?
**A.** Plasma concentrations of lutein+zeaxanthin ([1]; dogs fed 10 and 20 mg lutein, after week 2, more gradually): continued to increase; Plasma lutein+zeaxanthin vs unsupplemented animals ([1]; dogs, weeks 2 through 12, P<0.05): significantly higher; Plasma concentrations of lutein+zeaxanthin ([1]; lutein-supplemented dogs, after 2 weeks of feeding): increased rapidly; CD21+ B cell population ([2]; dogs): did not significantly influence; % CD8+ T cytotoxic cells vs control ([2]; dogs fed 20 mg lutein, week 8): significantly higher; % MHC class II cell populations vs unsupplemented dogs ([2]; dogs fed 20 mg lutein, week 8 and 12): elevated; % CD4+ cells ([2]; dogs fed 5 and 10 mg lutein, week 12): higher; CD8+ population ([2]; dogs, week 12): not influenced; Percentages of CD5+ cells vs unsupplemented controls ([2]; dogs, weeks 4 and 8, statistically significant with 5 and 20 mg lutein): higher; Production of IL-2 by PHA-stimulated PBMC among dietary treatments (IL-2; throughout the experimental period): did not differ significantly; Concentration of IL-2 in culture medium, average (IL-2; throughout the study): 15.7 ± 0.4 ng/mL; Spontaneous proliferation by unstimulated PBMC ([3]; dogs): did not significantly influence; PWM-stimulated PBMC proliferative response ([3]; dogs fed 10 mg lutein, week 8): higher; Con A-stimulated PBMC proliferation ([3]; dogs fed 10 mg lutein, weeks 8 and 12, 5 μg/mL Con A): higher; PHA-stimulated PBMC proliferative response vs unsupplemented ([3]; dogs fed 20 mg lutein, week 8, P<0.01): enhanced; PWM-stimulated PBMC proliferation vs unsupplemented controls ([3]; dogs fed 20 mg lutein, week 8 and 12, both concentrations of PWM): significantly higher; PHA-stimulated PBMC proliferative response vs unsupplemented ([3]; dogs fed 20 mg lutein, week 12, 2 and 10 μg/mL PHA, P<0.01): enhanced; Con A-stimulated PBMC proliferation ([3]; dogs fed 20 mg lutein, weeks 8 and 12, both concentrations of Con A): higher; PHA-stimulated PBMC proliferation ([3]; dogs fed 5 and 10 mg lutein, week 8, 10 μg/ml PHA): higher; PHA-stimulated PBMC response ([3]; dogs, weeks 0 and 4): no significant effect; PWM-stimulated PBMC proliferation ([3]; dogs, weeks 0 and 4): no significant treatment difference; Mammary tumor incidence [4]: decreases; Tumor growth [4]: decreases; Tumor latency [4]: shortened; Destruction of lutein in prepared food [5]: no significant destruction; DTH response to vaccine (cats; cats fed 5 or 10 mg lutein): significantly higher; DTH response to Con A (cats; cats, week 6): no significant dietary effect; DTH response to vaccine (cats; cats, all doses): significant dose-related; DTH response to Con A and vaccine (cats; cats, week 12): no significant treatment difference

Reference: patent publication US20010006673A1, “LUTEIN- CONTAINING SUPPLEMENT AND PROCESS FOR ENHANCING IMMUNE RESPONSE IN ANIMALS” (priority 1998, published 2001)
